Tests used:
[1] = tested on: Monocotyledonous and dicotyledonous test plants; experiment: Example B2: post-emergence herbicidal action, 2 kg of AS/ha; format: in vivo; design: key: 1 = complete damage, 9 = no effect; details: 4- to 6-leaf stage, about 18 days; for post-emergence action rating, Avena: test plant Avena; for post-emergence action rating, Setaria: test plant Setaria; for post-emergence action rating, Sinapis: test plant Sinapis; for post-emergence action rating, Solanum: test plant Solanum; for post-emergence action rating, Stellaria: test plant Stellaria
Experimental: Monocotyledonous and dicotyledonous test plants are grown in plastic pots with standard soil in a greenhouse and, in the 4- to 6-leaf stage, are sprayed with an aqueous suspension of the test substances of the formula 1, prepared from a 25% wettable powder (Example F3, b) according to WO 97134485) or with an emulsion of the test substances of the formula I, prepared from a 25% emulsion concentrate (Example F1, c) according to WO 97/34485), corresponding to a dosage of 2 kg of AS/ha (500 l of water/ha). The test plants are then grown further under optimum conditions in a greenhouse. After a test period of about 18 days, the test is evaluated with a nine-level scale of rating (1=complete damage, 9=no effect). Ratings of 1 to 4 (in particular 1 to 3) mean good to very good herbicidal action. In this test, the compounds of the formula I show strong herbicidal action.

[2] = tested on: Monocotyledonous and dicotyledonous test plants; experiment: Example B1: pre-emergence herbicidal action, 2 kg of AS/ha; format: in vivo; details: 3 weeks, scale 1-9; for pre-emergence action rating, Avena: test plant Avena; for pre-emergence action rating, Cyperus: test plant Cyperus; for pre-emergence action rating, Setaria: test plant Setaria; for pre-emergence action rating, Sinapis: test plant Sinapis; for pre-emergence action rating, Solanum: test plant Solanum; for pre-emergence action rating, Stellaria: test plant Stellaria
Experimental: Monocotyledonous and dicotyledonous test plants are sown in standard soil in plastic pots. Immediately after sowing, the test substances are sprayed on (500 l of water/ha) as an aqueous suspension (prepared from a 25% wettable powder (Example F3, b) according to WO 97/34485) or emulsion (prepared from a 25% emulsion concentrate (Example F1, c)), corresponding to a dosage of 2 kg of AS/ha. The test plants are then grown under optimum conditions in a greenhouse. After a test period of 3 weeks, the test is evaluated with a nine-level scale of ratings (1=complete damage, 9=no effect). Ratings of 1 to 4 (in particular 1 to 3) mean good to very good herbicidal action.

| Compound | post-emergence action rating, Avena ([1]; scale 1-9) | post-emergence action rating, Setaria ([1]; scale 1-9) | post-emergence action rating, Sinapis ([1]; scale 1-9) | post-emergence action rating, Solanum ([1]; scale 1-9) | post-emergence action rating, Stellaria ([1]; scale 1-9) | pre-emergence action rating, Avena [2] | pre-emergence action rating, Cyperus [2] | pre-emergence action rating, Setaria [2] | pre-emergence action rating, Sinapis [2] | pre-emergence action rating, Solanum [2] | pre-emergence action rating, Stellaria [2] | post-emergence action rating, Avena ([1]; scale 1-9, listed as 1.010) | post-emergence action rating, Stellaria ([1]; scale 1-9, listed as 1.010) |
| --- | --- | --- | --- | --- | --- | --- | --- | --- | --- | --- | --- | --- | --- |
| CCC1=CC(C)(C)C(O)=C(C(=O)c2ccc(C(F)(F)F)nc2C)C1=O [Compound 5.081] | 3 | 2 | 1 | 1 | 2 | – | – | – | – | – | – | – | – |
| Cc1nc(C(F)(F)F)ccc1C(=O)C1=C(O)C2CCC(C2)C1=O (stereo not shown) [Compound 1.009, 4-hydroxy-3-(2-methyl-6-trifluoromethylpyridine-3-carbonyl)bicyclo[3.2.1]oct-3-en-2-one] | 1 | 1 | 1 | 1 | 2 | 2 | 1 | 1 | 2 | 1 | 2 | – | – |
| O=C(C1=C(O)C2CCC(C2)C1=O)c1ccc(C(F)(F)F)nc1C1CC1 (stereo not shown) [Compound 1.042] | 2 | 2 | 1 | 2 | 2 | 4 | 2 | 2 | 1 | 1 | 4 | – | – |
| CCOC(=O)OC1=C(C(=O)c2ccc(C(F)(F)F)nc2C)C(=O)C2CCC1C2 (stereo not shown) [Compound 1.409] | 2 | 1 | 1 | 1 | 2 | 1 | 1 | 1 | 1 | 1 | 1 | – | – |
| Cc1nc(C(F)(F)F)ccc1C(=O)C1=C(O)C(C)(C)ON(C)C1=O [Compound 4.009] | 1 | 1 | 1 | 1 | 1 | 1 | 2 | 1 | 2 | 1 | 3 | – | – |
| Cc1cc(C(=O)C2=C(O)C3CCC(C3)C2=O)c(C)nc1C(F)(F)F (stereo not shown) [Compound 1.313] | 2 | 2 | 1 | 2 | 2 | 3 | 1 | 2 | 1 | 1 | 2 | – | – |
| O=C(C1=C(O)C2CCC(C2)C1=O)c1ccc(C(F)(F)F)nc1 (stereo not shown) [Compound 1.001] | 3 | 2 | 1 | 2 | 2 | – | – | – | – | – | – | – | – |
| CC=CC(=O)OC1=C(C(=O)c2ccc(C(F)(F)F)nc2C)C(=O)C2CCC1C2 (stereo not shown) [Compound 1.406] | 2 | 2 | 1 | 1 | 2 | 2 | 1 | 1 | 1 | 1 | 2 | – | – |
| Cc1nc(C(F)(F)C(F)(F)C(F)(F)C(F)(F)F)ccc1C(=O)C1=C(O)C2CCC(C2)C1=O (stereo not shown) [Compound 1.411] | 2 | 2 | 1 | 2 | 2 | 3 | 2 | 1 | 2 | 1 | 2 | – | – |
| COc1nc(C(F)(F)F)ccc1C(=O)C1=C(O)C2CCC(C2)C1=O (stereo not shown) [Compound 1.043] | 2 | 2 | 1 | 2 | 2 | 4 | 2 | 1 | 2 | 1 | 2 | – | – |
| CCCc1nc(C(F)(F)F)ccc1C(=O)C1=C(O)C2CCC(C2)C1=O (stereo not shown) [Compound 1.012] | 3 | 2 | 1 | 2 | 2 | – | – | – | – | – | – | – | – |
| C=CC(=O)OC1=C(C(=O)c2ccc(C(F)(F)F)nc2C)C(=O)C2CCC1C2 (stereo not shown) [Compound 1.405] | 2 | 2 | 1 | 2 | 2 | 2 | 1 | 1 | 1 | 1 | 2 | – | – |
| O=C(C1=C(O)C2CCC(C2)C1=O)c1ccc(C(F)(F)F)nc1 (stereo not shown) [Compound 1.01] | – | 2 | 1 | 2 | – | 2 | 1 | 1 | 1 | 1 | 2 | 2 | 4 |
| Cc1nc(C(F)(F)F)ccc1C(=O)C1=C(OC(=O)c2ccccc2)C2CCC(C2)C1=O (stereo not shown) [Compound 1.402] | 2 | 2 | 1 | 2 | 2 | 2 | 1 | 1 | 2 | 1 | 2 | – | – |
| O=C(C1=C(O)C2CCC(C2)C1=O)c1ccc(C(F)(F)F)nc1C(F)(F)F (stereo not shown) [Compound 1.008] | 2 | 2 | 1 | 2 | 2 | – | – | – | – | – | – | – | – |
| Cc1cc(C(F)(F)F)ncc1C(=O)C1=C(O)C2CCC(C2)C1=O (stereo not shown) [Compound 1.362] | 3 | 2 | 1 | 2 | 2 | – | – | – | – | – | – | – | – |
| CS(=O)(=O)Cc1nc(C(F)(F)F)ccc1C(=O)C1=C(O)C2CCC(C2)C1=O (stereo not shown) [Compound 1.026] | 3 | 1 | 1 | 1 | 2 | – | – | – | – | – | – | – | – |
| C#CCOc1nc(C(F)(F)F)ccc1C(=O)C1=C(O)C2CCC(C2)C1=O (stereo not shown) [Compound 1.048] | 2 | 1 | 1 | 1 | 2 | – | – | – | – | – | – | – | – |
| CCc1nc(C(F)(F)F)ccc1C(=O)C1=C(O)C(C)(C)ON(C)C1=O [Compound 4.01] | 3 | 3 | 2 | 2 | 2 | – | – | – | – | – | – | – | – |
| Cc1nc(C(F)(F)F)ccc1C(=O)C1=C(O)C(C)(C)C=CC1=O [Compound 5.085] | 3 | 2 | 1 | 2 | 2 | – | – | – | – | – | – | – | – |

Source: US6498125B2, “Pyridine ketones useful as herbicides” (Syngenta Participations AG, priority 1998, dated 2002)
